Measurements: patent US20090069300A1, “ISOQUINOLINYL AND ISOINDOLINYL DERIVATIVES AS HISTAMINE-3 ANTAGONISTS” (Wyeth, priority 2007, published 2009)

How the values were obtained:
[1] = target: T1, Human Histamine H3 Receptor (Homo sapiens, UniProt Q9Y5N1); test: Methyl histamine binding in human histamine H3 receptor cell line; conditions: read-out: H3 Binding Ki
T1 construct: expressed in transfected cells; host or cells: HEK293T (stably transfected; membranes prepared from the cells)
In short: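 Radioligand binding on membranes (10 μg/well) from a human H3 receptor cell line, 1 nM radioligand, 1 h at 30° C. in 50 mM Tris pH 7.5. Nonspecific binding defined with 10 uM clobenpropit, followed by filtration and scintillation counting. IC50 from four-parameter fit, converted to Ki by Cheng-Prusoff.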

T1 sequence (Q9Y5N1 whole entry): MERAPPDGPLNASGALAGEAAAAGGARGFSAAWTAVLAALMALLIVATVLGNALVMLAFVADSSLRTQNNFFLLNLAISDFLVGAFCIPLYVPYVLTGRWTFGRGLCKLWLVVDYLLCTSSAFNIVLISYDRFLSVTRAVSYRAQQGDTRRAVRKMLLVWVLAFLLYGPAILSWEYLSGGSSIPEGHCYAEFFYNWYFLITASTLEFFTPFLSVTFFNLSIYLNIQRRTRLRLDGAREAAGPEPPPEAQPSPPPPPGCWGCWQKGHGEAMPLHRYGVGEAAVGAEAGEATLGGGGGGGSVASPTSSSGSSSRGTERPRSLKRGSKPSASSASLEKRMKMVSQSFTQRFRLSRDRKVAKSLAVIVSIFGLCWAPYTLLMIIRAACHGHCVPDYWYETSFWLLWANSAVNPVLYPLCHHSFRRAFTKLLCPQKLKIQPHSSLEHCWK

melting point [°C] | Ki [1] [µM] | SMILES
257 to 259 | 0.0501 to 0.1 | c1cc2c(cc1-c1ccc3c(c1)OCO3)CCN(CCN1CCCC1)C2 [Example 176, 6-(1,3-benzodioxol-5-yl)-2-(2-pyrrolidin-1-ylethyl)-1,2,3,4-tetrahydroisoquinoline]
236 to 237 | 0.0101 to 0.025 | O=C(NC1CCC1)c1ccc(Oc2ccc3c(c2)CCN(CCN2CCCC2)C3=O)cc1 [Example 97, N-cyclobutyl-4-{[1-oxo-2-(2-pyrrolidin-1-ylethyl)-1,2,3,4-tetrahydroisoquinolin-6-yl]oxy}benzamide]
215 to 216 | < 0.01 | CCNC(=O)c1ccc(Oc2ccc3c(c2)CCN(CCN2CCCC2)C3=O)cc1 [Example 93, N-ethyl-4-{[1-oxo-2-(2-pyrrolidin-1-ylethyl)-1,2,3,4-tetrahydroisoquinolin-6-yl]oxy}benzamide]
